Key:
[1] = test system: carrageenan-induced hyperalgesic foot withdrawal; experiment: Rat Carrageenan-induced Analgesia Test; assay type: in vivo, rat (male Sprague-Dawley); settings: oral, @ 30 mg/ka body weight, 3 hours after carrageenan injection
Procedure: Rat Carrageenan-induced Analgesia Test
The analgesia test using rat carrageenan was performed with materials, reagents and procedures essentially as described by Hargreaves, et al., (Pain, 32, 77 (1988)). Male Sprague-Dawley rats were treated as previously described for the Carrageenan Foot Pad Edema test. Three hours after the injection of the carrageenan, the rats were placed in a special plexiglass container with a transparent floor having a high intensity lamp as a radiant heat source, positionable under the floor. After an initial twenty minute period, thermal stimulation was begun on either the injected foot or on the contralateral uninjected foot. A photoelectric cell turned off the lamp and timer when light was interrupted by paw withdrawal. The time until the rat withdraws its foot was then measured. The withdrawal latency in seconds was determined for the control and drug-treated groups, and percent inhibition of the hyperalgesic foot withdrawal determined.

Human COX II = biological target: T1, Human COX II (Homo sapiens, UniProt P35354); experiment: Evaluation of COX II activity in vitro (recombinant enzyme, PGE2 ELISA); assay type: biochemical; settings: 10 μM arachidonic acid, pre-incubation 10-20 minutes, pH 8.0; read-out: Human COX II ID50
T1 construct: made in house; host or cells: SF9 insect cells, recombinant baculovirus (transfer vector pVL1393)
T1 sequence (P35354 18-604): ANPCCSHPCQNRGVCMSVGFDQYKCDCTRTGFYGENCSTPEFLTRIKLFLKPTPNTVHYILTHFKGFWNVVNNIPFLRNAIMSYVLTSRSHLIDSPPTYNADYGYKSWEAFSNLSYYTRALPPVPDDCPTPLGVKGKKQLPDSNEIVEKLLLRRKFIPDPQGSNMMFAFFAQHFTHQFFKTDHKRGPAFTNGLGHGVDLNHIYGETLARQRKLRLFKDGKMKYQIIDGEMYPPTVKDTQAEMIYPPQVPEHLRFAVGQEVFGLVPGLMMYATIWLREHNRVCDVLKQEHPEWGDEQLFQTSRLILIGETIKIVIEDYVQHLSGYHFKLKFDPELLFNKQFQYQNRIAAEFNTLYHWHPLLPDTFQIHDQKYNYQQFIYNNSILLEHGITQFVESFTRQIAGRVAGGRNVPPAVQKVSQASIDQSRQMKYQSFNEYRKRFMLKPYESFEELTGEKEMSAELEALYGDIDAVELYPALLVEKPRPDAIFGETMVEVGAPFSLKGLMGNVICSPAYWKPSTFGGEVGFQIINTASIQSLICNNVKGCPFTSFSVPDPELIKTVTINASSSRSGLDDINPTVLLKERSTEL
Procedure: (§1) Evaluation of COX I and COX II activity in vitro
The COX II inhibition activity of the compounds of this invention illustrated in the Examples was determined by the following methods.
(§2) a. Preparation of recombinant COX baculoviruses
(§3) A 2.0 kb fragment containing the coding region of either human or murine COX-I or human or murine COX-II was cloned into a BamH1 site of the baculovirus transfer vector pVL1393 (Invitrogen) to generate the baculovirus transfer vectors for COX-I and COX-II in a manner similar to the method of D. R. O'Reilly et al (Baculovirus Expression Vectors: A Laboratory Manual (1992)). Recombinant baculoviruses were isolated by transfecting 4 μg of baculovirus transfer vector DNA into SF9 insect cells ([…]) along with 200 ng of linearized baculovirus plasmid DNA by the calcium phosphate method. See M. D. Summers and G. E. Smith, A Manual of Methods for Baculovirus Vectors and Insect Cell Culture Procedures, Texas Agric. Exp. Station Bull. 1555 (1987). Recombinant viruses were purified by three rounds of plaque purification and high titer (10E7-10E8 pfu/ml) stocks of virus were prepared. For large scale production, SF9 insect cells were infected in 10 liter fermentors (0.5×10^6 /ml) with the recombinant baculovirus stock such that the multiplicity of infection was 0.1. After 72 hours the cells were centrifuged and the cell pellet homogenized in Tris/Sucrose (50 mM: 25%, pH 8.0) containing 1% 3-[(3-cholamidopropyl)dimethylammonio]-1-propanesulfonate (CHAPS). The homogenate was centrifuged at 10,000'G for 30 minutes, and the resultant supernatant was stored at -80° C. before being assayed for COX activity.
(§4) b. Assay for COX I and COX II activity:
(§5) COX activity was assayed as PGE2 formed/μg protein/time using an ELISA to detect the prostaglandin released. CHAPS-solubilized insect cell membranes containing the appropriate COX enzyme were incubated in a potassium phosphate buffer (50 mM, pH 8.0) containing epinephrine, phenol, and heme with the addition of arachidonic acid (10 μM). Compounds were pre-incubated with the enzyme for 10-20 minutes prior to the addition of arachidonic acid. Any reaction between the arachidonic acid and the enzyme was stopped after ten minutes at 37° C./room temperature by transferring 40 μl of reaction mix into 160 μl ELISA buffer and 25 μM indomethacin. The PGE2 formed was measured by standard ELISA technology (Cayman Chemical).

Human COX I = biological target: T2, Human COX I (Homo sapiens, UniProt P23219); experiment: Evaluation of COX I activity in vitro (recombinant enzyme, PGE2 ELISA); assay type: biochemical; settings: 10 μM arachidonic acid, pre-incubation 10-20 minutes, pH 8.0; read-out: Human COX I ID50
T2 construct: made in house; host or cells: SF9 insect cells, recombinant baculovirus (transfer vector pVL1393)
Source text: as §1, §2, §3, §4, §5

[2] = test system: carrageenan foot pad edema (rat paw edema); experiment: Rat Carrageenan Foot Pad Edema Test; assay type: in vivo, rat (male Sprague-Dawley); settings: oral, @ 30 mg/ka body weight, 3 hours after carrageenan injection
Procedure: Rat Carrageenan Foot Pad Edema Test
Male Sprague-Dawley rats were selected in each group so that the average body weight was as close as possible. Rats were fasted with free access to water for over sixteen hours prior to the test. […] One hour later a subplantar injection of 0.1 mL of 1% solution of carrageenan/sterile 0.9% saline was administered and the volume of the injected foot was measured with a displacement plethysmometer connected to a pressure transducer with a digital indicator. Three hours after the injection of the carrageenan, the volume of the foot was again measured.

T2 sequence (P23219 24-599): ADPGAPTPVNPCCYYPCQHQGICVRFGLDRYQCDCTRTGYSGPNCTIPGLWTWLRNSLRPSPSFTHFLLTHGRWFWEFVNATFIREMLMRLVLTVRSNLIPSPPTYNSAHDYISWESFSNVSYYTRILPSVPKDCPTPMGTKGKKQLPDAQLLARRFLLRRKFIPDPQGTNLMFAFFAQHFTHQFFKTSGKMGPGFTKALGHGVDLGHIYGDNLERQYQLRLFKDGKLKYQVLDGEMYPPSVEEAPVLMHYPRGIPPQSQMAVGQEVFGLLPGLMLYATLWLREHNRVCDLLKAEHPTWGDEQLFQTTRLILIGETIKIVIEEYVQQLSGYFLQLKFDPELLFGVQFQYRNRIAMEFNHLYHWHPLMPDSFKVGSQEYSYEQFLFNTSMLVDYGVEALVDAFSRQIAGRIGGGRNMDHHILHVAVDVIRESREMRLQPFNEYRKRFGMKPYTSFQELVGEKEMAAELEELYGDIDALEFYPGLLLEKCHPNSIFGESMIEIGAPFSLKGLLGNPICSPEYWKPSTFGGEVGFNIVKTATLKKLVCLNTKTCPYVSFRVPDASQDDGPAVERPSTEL

| Structure (SMILES) | ANALGESIA % Inhibition [1] [%] | IC50 (Human COX II) [µM] | IC50 (Human COX I) [µM] | RAT PAW EDEMA % Inhibition [2] [%] |
| --- | --- | --- | --- | --- |
| COc1ccc2c(c1F)CSc1c(C(F)(F)F)nn(-c3ccc(S(C)(=O)=O)cc3)c1-2 [Example 2, 1,5-Dihydro-6-fluoro-7-methoxy-1-[(4-methylsulfonyl)phenyl]-3-(trifluoromethyl)-[2]benzothiopyrano[4,3-c]pyrazole] | 29 | < 0.1 | > 100 |  |
| NS(=O)(=O)c1ccc(-n2nc(C(F)(F)F)c3c2-c2cc(Cl)sc2CS3)cc1 [Example 21, 4-[7-Chloro-1,5-dihydro-3-trifluoromethyl-thieno[3',2':4,5]thiopyrano[3,2-c]pyrazol-1-yl]benzenesulfonamide] |  | < 0.1 | 8.7 | 26 |
| COC(=O)c1nn(-c2ccc(S(N)(=O)=O)cc2)c2c1SCc1cc(F)ccc1-2 [Example 29, methyl[1-(4-aminosulfonylphenyl)-1,5-dihydro-7-fluoro-[2]benzothiopyrano[4,3-c]pyrazol-3-yl]carboxylate] |  | 0.8 | 13.2 |  |
| COc1ccc2c(c1F)CSCc1c(C(F)(F)F)nn(-c3ccc(S(N)(=O)=O)cc3)c1-2 [Example 30, 4-[4,6-dihydro-7-fluoro-8-methoxy-3-(trifluoromethyl)-[2]benzothiepino[5,4-c]pyrazol-1-yl]benzenesulfonamide] |  | 2.2 | 73.4 |  |

Reference: patent publication US5547975A, “Benzopyranopyrazolyl derivatives for the treatment of inflammation” (priority 1994, dated 1996)
